The values below come from ChEMBL document CHEMBL1134888, “Preliminary structure-antiangiogenic activity relationships of 4-senecioyloxymethyl-6,7-dimethoxycoumarin” (Bioorg Med Chem Lett, 2002).

Experiment [1] deals with HUVEC (Homo sapiens). Kind of experiment: Inhibitory percentage in HUVEC tube formation assay at a concentration of 3 ug/mL; Inactive.
Experiment [2] has as its system B16. Kind of experiment: In vitro inhibition of B16 (murine melanoma) tumor cell growth. The note with it: Mus musculus.
In experiment [3] the test system is HCT-116. Kind of experiment: In vitro inhibition of HCT116 (human colon) tumor cell growth. The format is functional, cell-based.
In experiment [4] the test system is HCT-116. Kind of experiment: Concentration required for 50% reduction in HCT116 tumor cell growth (Human colon) was measured; NA denotes […]. It counts as functional, cell-based.
Experiment [5] relates to B16. Kind of experiment: Concentration required for 50% reduction in B16 tumor cell growth (murine melanoma) was measured; NA denotes […].
The test system of experiment [6] is HUVEC (Homo sapiens). Kind of experiment: Inhibitory percentage in HUVEC tube formation assay at a concentration of 3 ug/mL (toxic).
Experiment [7] concerns HUVEC (Homo sapiens). Kind of experiment: Inhibitory percentage in HUVEC tube formation assay at a concentration of 1 ug/mL (toxic).

In brackets after ≈: the same amount, converted by molar mass. A value given as a limit tells only on which side of the number the result lay.

As for `C=CC(=O)OCc1cc(=O)oc2cc(OC)c(OC)cc12`, the inhibition – broadly, the relative decrease from the control value, in per cent – at 3 µg/mL with HUVEC (Homo sapiens) [1] was less than 10%. In addition, the IC50 in the experiment with B16 [2] and in the experiment with HCT-116 [3] was more than 10 µg/mL each time.

Consider `CC(C)=CC(=O)OCc1cc(=O)oc2cc3ccccc3cc12`, for which the IC50 in the experiment on B16 [2] and in the experiment with HCT-116 [3] was more than 10 µg/mL each time.

Take `Br.COc1ccc(/C=C/C(=O)OCc2cc(=O)oc3cc(OC)c(OC)cc23)cn1`: the IC50 – broadly, the concentration at which inhibition is half-maximal – in the experiment with B16 [2] worked out at 1.27 µg/mL; with HCT-116 [3], 2.43 µg/mL.

The molecule `COc1ccc2c(COC(=O)C=C(C)C)cc(=O)oc2c1` displayed an inhibition at 3 µg/mL in the experiment on HUVEC (Homo sapiens) [1] of less than 10%. Moreover, the IC50 in the experiment with B16 [2] and in the experiment with HCT-116 [3] was more than 10 µg/mL throughout.

Consider `COc1cc2oc(=O)cc(COC(=O)/C=C/c3ccccc3)c2cc1OC`, for which the IC50 in the experiment on B16 [2] and in the experiment with HCT-116 [3] was more than 10 µg/mL each time.

In turn, `C/C=C/C(=O)OCc1cc(=O)oc2cc(OC)c(OC)cc12` displayed an inhibition at 3 µg/mL in the experiment on HUVEC (Homo sapiens) [1] of less than 10%. Also, the IC50 with B16 [2] and in the experiment on HCT-116 [3] was more than 10 µg/mL throughout.

Turning to `COc1cccc2c1C(=O)c1c(O)c3c(c(O)c1C2=O)C[C@@](O)(C(=O)CO)C[C@@H]3O[C@H]1C[C@H](N)[C@H](O)[C@H](C)O1` [DOXORUBICIN], the figures for the IC50 with B16 [2] and with HCT-116 [3] were 0.09 µg/mL (≈ 0.166 µM) and 0.11 µg/mL (≈ 0.202 µM), respectively.

`COc1cc2oc(=O)cc(COC(=O)/C=C/c3ccc(O)cc3)c2cc1OC`: the IC50 with B16 [2] was 4.15 µg/mL (≈ 10.9 µM); in the experiment with HCT-116 [3] it was 5.21 µg/mL (≈ 13.6 µM).

In the experiment with HUVEC (Homo sapiens) [1], `COc1ccc2oc(=O)cc(COC(=O)C=C(C)C)c2c1` registered an inhibition at 3 µg/mL of less than 10%. In addition, the IC50 with B16 [2] and with HCT-116 [3] was more than 10 µg/mL each time.

On to `CC(C)=CC(=O)OCc1cc(=O)oc2cc3c(cc12)OCO3`, for which the IC50 in the experiment on B16 [2] and with HCT-116 [3] was more than 10 µg/mL each time.

For `Cc1ccc(C(=O)Nc2ccc(S(=O)(=O)O)c3cc(S(=O)(=O)O)cc(S(=O)(=O)O)c23)cc1NC(=O)c1cccc(NC(=O)Nc2cccc(C(=O)Nc3cc(C(=O)Nc4ccc(S(=O)(=O)O)c5cc(S(=O)(=O)O)cc(S(=O)(=O)O)c45)ccc3C)c2)c1` [SURAMIN], the concentration for half-maximal inhibition (IC50) entry with HCT-116 [4] and in the experiment with B16 [5] was “Not Active” in each case.

As to `COc1cc2oc(=O)cc(COC(=O)/C=C/c3ccc(Cl)cc3)c2cc1OC`, the IC50 with B16 [2] and with HCT-116 [3] was more than 10 µg/mL each time.

`COc1ccc(/C=C/C(=O)OCc2cc(=O)oc3cc(OC)c(OC)cc23)cc1O` gave an inhibition at 3 µg/mL with HUVEC (Homo sapiens) [6] of 35.5%. Further, the values for the IC50 in the experiment on B16 [2] and in the experiment on HCT-116 [3] were 3 µg/mL (≈ 7.27 µM) and 3.41 µg/mL (≈ 8.27 µM), respectively.

`COc1ccc(/C=C/C(=O)OCc2cc(O)nc3cc(OC)c(OC)cc23)cc1`: the IC50 in the experiment with B16 [2] and in the experiment with HCT-116 [3] was more than 10 µg/mL in each case.

Take `COc1cc2oc(=O)cc(COC(=O)/C=C/c3ccc(OCCN(C)C)cc3)c2cc1OC.Cl`: the IC50 in the experiment on B16 [2] and in the experiment with HCT-116 [3] was more than 10 µg/mL each time.

As for `COc1cc2oc(=O)cc(COC(=O)C=C(C)C)c2cc1OC`, the IC50 in the experiment on B16 [2] and in the experiment with HCT-116 [3] was more than 10 µg/mL in each case.

`COc1cc2oc(=O)cc(COC(=O)/C=C/c3cc(OC)c(OC)c(OC)c3)c2cc1OC`: the IC50 with B16 [2] amounted to 6.74 µg/mL (≈ 14.8 µM); in the experiment on HCT-116 [3] it was 8.31 µg/mL (≈ 18.2 µM).

In the experiment on HUVEC (Homo sapiens) [7], `COc1ccc(/C=C/C(=O)OCc2cc(=O)oc3cc(OC)c(OC)cc23)cc1` yielded an inhibition at 1 µg/mL of 100%. For the same molecule, the IC50 stood at 0.96 µg/mL (≈ 2.42 µM) in the experiment with B16 [2] and 1.02 µg/mL (≈ 2.57 µM) in the experiment on HCT-116 [3].

Turning to `COc1cc2oc(=O)cc(COC(=O)/C=C/c3ccc(N)cc3)c2cc1OC`, the IC50 in the experiment on B16 [2] and in the experiment on HCT-116 [3] was more than 10 µg/mL throughout.

With `CC(C)=CC(=O)OCc1cc(=O)oc2ccc(Cl)cc12`, the IC50 in the experiment with B16 [2] and in the experiment on HCT-116 [3] was more than 10 µg/mL in each case.
